Assay results reported in patent US20180200257A1, “METHODS FOR THE TREATMENT OF INFLAMMATORY DISORDERS” (Galapagos NV, priority 2015, published 2018).

Tested on: Subjects With Active Crohn's Disease With Evidence of Mucosal Ulceration
Assay: Study 3 - Crohn's Disease Activity Index (CDAI) scores
Assay type: in vivo, human
From the text: Double-Blind, Randomized, Placebo-Controlled, Multi-Centre Study to Investigate the Efficacy and Safety of Compound 1 in Subjects With Active Crohn's Disease With Evidence of Mucosal Ulceration. This is a double-blind, randomized, placebo-controlled, multi-centre Phase 2 study to investigate the efficacy and safety of Compound 1 administered once daily for the treatment of active CD with evidence of mucosal ulceration. The pharmacokinetics (including a PK substudy) and pharmacodynamics of Compound 1 and metabolite in CD will also be characterised. A total of 180 eligible subjects will be randomized to receive Compound 1 or placebo in addition to their stable background treatment (eg, corticosteroids, aminosalicylates, or CD-related antibiotics). The study will consist of 2 parts, with total treatment duration of 20 weeks. Randomization in Part 1 will be stratified according the subject's previous anti-TNF exposure/response, CRP level at Screening, and oral corticosteroid use at visit Day −1. After the first 10 weeks of treatment in Part 1, patients will be re-randomized for Part 2 as shown in the diagram below and will be stratified according to the subject's clinical response, previous anti-TNF exposure/response, and oral corticosteroid use at visit Day -1. [table] The Crohn's disease activity index (CDAI) is a numerical calculation derived from the sum of products from a list of 8 items (see Table CXXVI below), and multiplied by weighting factors for each item to define the severity of “disease activity” in patients with Crohn's disease (CD)[1]. Essentially, the CDAI represents a numerical estimation of a physician's interpretation of patient symptoms. Index values of 150 and below are associated with quiescent or non-active disease (i.e. “remission”). Values over 150 are indicative of active disease, and over 450, extremely severe disease.% In the present study, clinical remission is defined as a CDAI score of <150 points, and a clinical response is defined as a decrease in CDAI score of at least 100 points.

[1] = 200 mg, LOCF, baseline corticosteroid use: with steroids
[2] = 200 mg, LOCF, baseline corticosteroid use: without steroids
[3] = 200 mg, week 10, Anti-TNF Naïve
[4] = 200 mg, week 10, Anti-TNF experienced non-responders
[5] = 200 mg, week 10, LOCF, screening CRP ≤ 10 ml/L
[6] = 200 mg, week 10, LOCF, screening CRP ≥ 10 mg/L
[7] = initial 200 mg non-responders, continued 200 mg, week 10
[8] = initial 200 mg non-responders, continued 200 mg, week 20
[9] = initial 200 mg non-responders, to placebo, week 10
[10] = initial 200 mg non-responders, to placebo, week 20
[11] = initial 200 mg responders, continued 200 mg, week 10
[12] = initial 200 mg responders, continued 200 mg, week 20
[13] = initial 200 mg responders, to 100 mg, week 10
[14] = initial 200 mg responders, to 100 mg, week 20
[15] = initial 200 mg responders, to placebo, week 10
[16] = initial 200 mg responders, to placebo, week 20
[17] = initial placebo non-responders switching to 100 mg at week 10, week 20

O=C(Nc1nc2cccc(-c3ccc(CN4CCS(=O)(=O)CC4)cc3)n2n1)C1CC1 [Compound 1, cyclopropanecarboxylic acid {5-[4-(1,1-dioxo-thiomorpholin-4-ylmethyl)-phenyl]-[1,2,4]triazolo[1,5-a]pyridin-2-yl}-amide]
70 point clinical response (CDAI improvement ≥ 70 points) [1]: 70% | 100 point clinical response (CDAI improvement ≥ 100 points) [1]: 60% | Clinical Remission (CDAI < 150) [1]: 52% | 70 point clinical response (CDAI improvement ≥ 70 points) [2]: 72% | 100 point clinical response (CDAI improvement ≥ 100 points) [2]: 71% | Clinical Remission (CDAI < 150) [2]: 48% | 70 point clinical response (CDAI improvement ≥ 70 points) [3]: 81% | 100 point clinical response (CDAI improvement ≥ 100 points), LOCF [3]: 74% | Clinical Remission (CDAI < 150), LOCF [3]: 65% | 70 point clinical response (CDAI improvement ≥ 70 points) [4]: 63% | 100 point clinical response (CDAI improvement ≥ 100 points), LOCF [4]: 59% | Clinical Remission (CDAI < 150), LOCF [4]: 38% | 70 point clinical response (CDAI improvement ≥ 70 points) [5]: 73% | 100 point clinical response (CDAI improvement ≥ 100 points) [5]: 66% | Clinical Remission (CDAI < 150) [5]: 46% | 70 point clinical response (CDAI improvement ≥ 70 points) [6]: 69% | 100 point clinical response (CDAI improvement ≥ 100 points) [6]: 65% | Clinical Remission (CDAI < 150) [6]: 56% | 100 point clinical response (CDAI improvement ≥ 100 points), LOCF (200 mg, week 10, overall): 66% | 100 point clinical response (CDAI improvement ≥ 100 points), NRI (200 mg, week 10, overall): 60% | Clinical Remission (CDAI < 150), LOCF (200 mg, week 10, overall): 50% | Clinical Remission (CDAI <150), NRI (200 mg, week 10, overall): 48% | Clinical Remission (CDAI < 150), LOCF [7]: 16% | Clinical Remission (CDAI <150), NRI [7]: 16% | Clinical Remission (CDAI <150), OC [7]: 16% | Clinical Response (CDAI ≥70), LOCF [7]: 44% | Clinical Response (CDAI ≥70), NRI [7]: 44% | Clinical Response (CDAI ≥70), OC [7]: 44% | Clinical Response (CDAI ≥100), LOCF [7]: 32% | Clinical Response (CDAI ≥100), NRI [7]: 32% | Clinical Response (CDAI ≥ 100), OC [7]: 32% | Clinical Remission (CDAI < 150), LOCF [8]: 28% | Clinical Remission (CDAI <150), NRI [8]: 24% | Clinical Remission (CDAI <150), OC [8]: 30% | Clinical Response (CDAI ≥70), LOCF [8]: 44% | Clinical Response (CDAI ≥70), NRI [8]: 40% | Clinical Response (CDAI ≥70), OC [8]: 50% | Clinical Response (CDAI ≥100), LOCF [8]: 36% | Clinical Response (CDAI ≥100), NRI [8]: 32% | Clinical Response (CDAI ≥ 100), OC [8]: 40% | Clinical Remission (CDAI < 150), LOCF [9]: 0% | Clinical Remission (CDAI <150), NRI [9]: 0% | Clinical Remission (CDAI <150), OC [9]: 0% | Clinical Response (CDAI ≥70), LOCF [9]: 22% | Clinical Response (CDAI ≥70), NRI [9]: 11% | Clinical Response (CDAI ≥70), OC [9]: 13% | Clinical Response (CDAI ≥100), LOCF [9]: 22% | Clinical Response (CDAI ≥100), NRI [9]: 11% | Clinical Response (CDAI ≥ 100), OC [9]: 13% | Clinical Remission (CDAI < 150), LOCF [10]: 33% | Clinical Remission (CDAI <150), NRI [10]: 33% | Clinical Remission (CDAI <150), OC [10]: 38% | Clinical Response (CDAI ≥70), LOCF [10]: 44% | Clinical Response (CDAI ≥70), NRI [10]: 44% | Clinical Response (CDAI ≥70), OC [10]: 50% | Clinical Response (CDAI ≥100), LOCF [10]: 33% | Clinical Response (CDAI ≥100), NRI [10]: 33% | Clinical Response (CDAI ≥ 100), OC [10]: 38% | Clinical Remission (CDAI < 150), LOCF [11]: 67% | Clinical Remission (CDAI <150), NRI [11]: 63% | Clinical Remission (CDAI <150), OC [11]: 70% | Clinical Response (CDAI decrease ≥100 points), OC [11]: 93% | Clinical Response (CDAI ≥70), LOCF [11]: 100% | Clinical Response (CDAI ≥70), NRI [11]: 90% | Clinical Response (CDAI ≥70), OC [11]: 100% | Clinical Response (CDAI ≥100), LOCF [11]: 93% | Clinical Response (CDAI ≥100), NRI [11]: 83% | Clinical Remission (CDAI < 150), LOCF [12]: 57% | Clinical Remission (CDAI <150), NRI [12]: 50% | Clinical Remission (CDAI <150), OC [12]: 58% | Clinical Response (CDAI decrease ≥100 points), OC [12]: 77% | Clinical Response (CDAI ≥70), LOCF [12]: 80% | Clinical Response (CDAI ≥70), NRI [12]: 70% | Clinical Response (CDAI ≥70), OC [12]: 81% | Clinical Response (CDAI ≥100), LOCF [12]: 77% | Clinical Response (CDAI ≥100), NRI [12]: 67% | Clinical Remission (CDAI < 150), LOCF [13]: 87% | Clinical Remission (CDAI <150), NRI [13]: 87% | Clinical Remission (CDAI <150), OC [13]: 87% | Clinical Response (CDAI decrease ≥100 points), OC [13]: 97% | Clinical Response (CDAI ≥70), LOCF [13]: 100% | Clinical Response (CDAI ≥70), NRI [13]: 100% | Clinical Response (CDAI ≥70), OC [13]: 100% | Clinical Response (CDAI ≥100), LOCF [13]: 97% | Clinical Response (CDAI ≥100), NRI [13]: 97% | Clinical Remission (CDAI < 150), LOCF [14]: 63% | Clinical Remission (CDAI <150), NRI [14]: 60% | Clinical Remission (CDAI <150), OC [14]: 75% | Clinical Response (CDAI decrease ≥100 points), OC [14]: 92% | Clinical Response (CDAI ≥70), LOCF [14]: 83% | Clinical Response (CDAI ≥70), NRI [14]: 77% | Clinical Response (CDAI ≥70), OC [14]: 96% | Clinical Response (CDAI ≥100), LOCF [14]: 80% | Clinical Response (CDAI ≥100), NRI [14]: 73% | Clinical Remission (CDAI < 150), LOCF [15]: 79% | Clinical Remission (CDAI <150), NRI [15]: 71% | Clinical Remission (CDAI <150), OC [15]: 77% | Clinical Response (CDAI decrease ≥100 points), OC [15]: 92% | Clinical Response (CDAI ≥70), LOCF [15]: 100% | Clinical Response (CDAI ≥70), NRI [15]: 93% | Clinical Response (CDAI ≥70), OC [15]: 100% | Clinical Response (CDAI ≥100), LOCF [15]: 93% | Clinical Response (CDAI ≥100), NRI [15]: 86% | Clinical Remission (CDAI < 150), LOCF [16]: 79% | Clinical Remission (CDAI <150), NRI [16]: 71% | Clinical Remission (CDAI <150), OC [16]: 77% | Clinical Response (CDAI decrease ≥100 points), OC [16]: 85% | Clinical Response (CDAI ≥70), LOCF [16]: 93% | Clinical Response (CDAI ≥70), NRI [16]: 86% | Clinical Response (CDAI ≥70), OC [16]: 92% | Clinical Response (CDAI ≥100), LOCF [16]: 86% | Clinical Response (CDAI ≥100), NRI [16]: 79% | Clinical Remission (CDAI < 150), LOCF [17]: 32% | Clinical Remission (CDAI <150), NRI [17]: 32% | Clinical Remission (CDAI <150), OC [17]: 33% | Clinical Response (CDAI ≥70), LOCF [17]: 68% | Clinical Response (CDAI ≥70), NRI [17]: 68% | Clinical Response (CDAI ≥70), OC [17]: 71% | Clinical Response (CDAI ≥100), LOCF [17]: 59% | Clinical Response (CDAI ≥100), NRI [17]: 59% | Clinical Response (CDAI ≥ 100), OC [17]: 62%
